Source: patent publication US20130165489A1, “Small Molecule Modulators of HIV-1 Capsid Stability and Methods Thereof” (The Trustees of the University of Pennsylvania, priority 2010, published 2013)
Entries after “also recorded” stand apart in the source; their conditions may differ.

Tests used:
[1] = molecular target: HIV-1NL4-3 CA (Human immunodeficiency virus type 1 group M subtype B, UniProt P12493); assay: Surface plasmon resonance direct binding to HIV-1 CA; conditions: SPR
Procedure: Interaction analyses were performed on a Biacore 3000 optical biosensor (Biacore, Piscataway Township, NJ) with simultaneous monitoring of two flow cells Immobilization of the CA protein to CM7 sensor chips was performed following the standard amine coupling procedure according to the manufacturer's specifications. Briefly, carboxyl groups on the sensor chip surface were activated by injection of 50 μL of a solution containing 0.2 M EDC (1-ethyl-3-[3-dimethylamino-propyl]carbodiimide hydrochloride) and 0.05 M NHS(N-hydroxysuccinimide) at a flow rate of 5 μL min^−1. Next, the 50 μL of CA protein at a concentration of 6 μM in pH 5.0, 10 mM sodium acetate buffer was passed over the chip surface at 25° C. at a flow rate of 5 μL min^−1 Then, after unreacted protein had been washed out, excess active ester groups on the sensor surface were capped by the injection of 50 μL of 1 M ethanolamine (pH 8.0) at a flow rate of 5 μL min^−1. A reference surface with the nonspecific anti-gp120 antibody 17b (Thali et al., 1993, J. Virol. 67:3978-88) immobilized was generated at the same time under the same conditions and was used as background to correct nonspecific binding and for instrument and buffer artifacts.
Stock solutions of CMPD-E and CMPD-F were prepared by dissolving the compounds in 100% dimethyl sulfoxide (DMSO) to a final concentration of 10 mM. To prepare the sample for analysis, 30 μL of the compound stock solution was added to sample preparation buffer (25 mM Tris-HCl, 150 mM NaCl, pH 7.5) to a final volume of 1 mL and mixed thoroughly. Preparation of analyte in this manner ensured that the concentration of DMSO was matched with that of running buffer with 3% DMSO. Lower concentrations of each compound were then prepared by twofold serial dilutions into running buffer (25 mM Tris-HCl, 150 mM NaCl, 3% DMSO, pH 7.5). These compound dilutions were then injected over the control and CA surfaces at a flow rate of 50 μL min^−1, for a 2-min association phase, followed by a 5-min dissociation phase. […]

[2] = system: HIV-1IIIB; assay: Anti-HIV efficacy in P4-R5 MAGI cells; type: cell-based
Procedure: P4-R5 MAGI cells (NIH AIDS Research & Reference Reagent Program, catalog #3580) were maintained in Dulbecco's Modified Eagle's Media (DMEM) supplemented with 10% fetal bovine serum (FBS), sodium bicarbonate (0.05%), antibiotics (penicillin, streptomycin, and kanamycin at 40 μg/mL each), and puromycin (1 μg/mL). Initial studies were performed using the HIV-1-susceptible P4-R5 MAGI reporter cell line. HIV-1 infection of these cells (which express CD4, CXCR4, and CCR5) results in LTR-directed β-galactosidase expression, which can be readily and accurately quantitated. Approximately 18 h prior to the experiment, P4-R5 MAGI cells were plated at a concentration of 1.2×10^4 cells/well in a flat-bottom 96-well plate. On the day of the experiment, cells were infected in quadruplicate with HIV-1 strain IIIB (Advanced Biotechnologies, Inc., Columbia, Md.) in the presence or absence of putative CA inhibitors at the indicated concentrations. After 48 h incubation at 37° C., cells were assayed for infection using the Galacto-Star One-Step β-Galactosidase Reporter Gene Assay System (Applied Biosystems, Bedford, Mass.).

[3] = system: HIV-1 92BR030 (subtype B clinical isolate); assay: Anti-HIV efficacy in human PBMCs, isolate 92BR030; type: cell-based; conditions: primary PBMCs
Procedure: HIV human peripheral blood mononuclear cell (PBMC) assays were performed as described previously (Lanier et al., 2010, Antimicrob. Agents Chemother. 54:2901-09; Ptak et al., 2008, Antimicrob. Agents Chemother. 52:1302-17). Briefly, fresh PBMCs, seronegative for HIV and hepatitis B virus (HBV), were isolated from blood samples of the screened donors (Biological Specialty Corporation, Colmar, Pa.) by using lymphocyte separation medium (LSM; density, 1.078±0.002 g/ml; Cellgro; Mediatech, Inc.) by following the manufacturer's instructions. Cells were stimulated by incubation in 4 μg/mL phytohemagglutinin (PHA; Sigma) for 48 to 72 h. Mitogenic stimulation was maintained by the addition of 20 U/mL recombinant human interleukin-2 (rhIL-2; R&D Systems, Inc.) to the culture medium. PHA-stimulated PBMCs from at least two donors were pooled, diluted in fresh medium, and added to 96-well plates at 5×10^4 cells/well. Cells were infected (final multiplicity of infection [MOI] of ≅0.1) in the presence of 9 different concentrations of test compounds (triplicate wells/concentration) and incubated for 7 days. To determine the level of virus inhibition, cell-free supernatant samples were collected for analysis of reverse transcriptase activity (Buckheit Jr., et al., 1991, AIDS Res. Hum. Retroviruses 7:295-302). Following removal of supernatant samples, compound cytotoxicity was measured by the addition of 3-(4,5-dimethylthiazol-2-yl)-5-(3-carboxymethoxyphenyl)-2-(4-sulfophenyl)-2H-tetrazolium (MTS; CellTiter 96 reagent; Promega) by following the manufacturer's instructions.
79:6089-6101; Jagodzinski et al., 2000, J. Clin. Microbiol. 38:1247-49; Michael et al., 1999, J. Clin. Microbiol. 37:2557-63 and Vahey et al., 1999, J. Clin. Microbiol. 37:2533-37); HIV-1 Group M isolate 931N101 (Subtype C, CCR5-tropic) from Dr. Robert Bollinger and the UNAIDS Network for HIV Isolation and Characterization (Gao et al., 1994, AIDS Res. Hum. Retroviruses 10:1359-68); HIV-1 Group M isolate CMUO8 (Subtype E, CXCR4-tropic) from Dr. Kenrad Nelson and the UNAIDS Network for HIV Isolation and Characterization (Gao et al., 1994, AIDS Res. Hum. Retroviruses 10:1359-68); HIV-1 Group M isolate G3 (Subtype G, CCR5-tropic) from Alash'le Abimiku (Abimiku et al., 1994, Aids Res. Hum. Retrovir. 10:1581-83); HIV-1 Group 0 isolate BCF02 (CCR5-tropic) from Sentob Saragosti, Françoise Brun-Vézinet, and François Simon (Loussertajaka et al., 1995, J. Virol. 69:5640-49); and SIV isolate Mac251 from Dr. Ronald Desrosiers (Daniel et al., 1985, Science 228:1201-04).

[4] = system: DENV (serotypes 1-4); assay: CPE assay, Dengue serotypes 1-4; type: cell-based, Dengue virus; conditions: Dengue virus; Vero cells; read-out: average half-maximal inhibitory concentration over DENV serotypes 1-4
[5] = system: DENV1; assay: CPE assay, DENV1; type: cell-based; conditions: Dengue virus, DENV1, Vero C1008; Vero E6 cells; 3 replicates
[6] = system: DENV2; assay: CPE assay, DENV2; type: cell-based; conditions: Dengue virus, DENV2, Vero C1008; Vero E6 cells; 3 replicates
[7] = system: DENV3; assay: CPE assay, DENV3; type: cell-based; conditions: Dengue virus, DENV3, Vero C1008; Vero E6 cells; 3 replicates
[8] = system: DENV4; assay: CPE assay, DENV4; type: cell-based; conditions: Dengue virus, DENV4, Vero C1008; Vero E6 cells; 3 replicates
[9] = system: RSV; assay: CPE assay, RSV; type: cell-based, respiratory syncytial virus
[10] = in vitro; type: cell-based; conditions: hamster
[11] = system: West Nile virus (WNV); assay: West Nile Virus virus-like particle (VLP) assay on Vero cells; type: cell-based; conditions: 24 hr, firefly luciferase reporter, 2 replicates
Procedure: (§1) The activity of CMPD-A against a high-priority flaviviral pathogen, West Nile virus (WNV), was evaluated. The compound was tested in a West Nile Virus, virus-like particle (VLP) assay, which is a 24 hr assay on Vero cells using a firefly luciferase reporter to measure viral replication activity. In these tests IC50 values of 30 (±13) μM were obtained, with no toxicity at 100 μM using either both MTT or a renilla luciferase cellular assay (FIG. 16).

[12] = system: Vero cells; type: cell-based; conditions: at 100 μM; MTT or renilla luciferase cellular assay
Procedure: as §1

[13] = system: producer cells (293T); type: cell-based, human
Excerpt: Moreover, these compounds appeared to be working at different stages of the viral life-cycle—one at an early post-entry event (CMPD-A) and the other at an assembly or post-integration event in HIV-1 replication (CMPD-D).

[14] = system: Vero cells; conditions: over the concentration range tested
[15] = system: DENV2; assay: DENV2 focus reduction assay using BHK cells; conditions: Dengue virus, read-out: average IC50, DENV2 focus reduction
[16] = system: recombinant luciferase-expressing HIV-1 bearing the envelope glycoprotein of the HIV-1YU-2 strain; assay: Single-round infection assay, HIV-1 with YU-2 envelope on Cf2Th-CCR5 cells; conditions: for activity in the single-round infection assay: Cf2Th-CCR5 cells, YU-2 envelope
[17] = Single-round infection assay, infection of U87 CD4-CXCR4 target cells in presence of compound; conditions: Human immunodeficiency virus 1, U87.CD4.CXCR4, read-out: IC50 against HIV-1
[18] = molecular target: CANTD (Human immunodeficiency virus type 1 group M subtype B, UniProt P12493); conditions: binding to CANTD; read-out: equilibrium dissociation constant (KD); cited from earlier work
[19] = system: single-round competent HIV-1NL4-3 virus; assay: Single-round assay, production of infectious virus from compound-treated producer cells

Structure (SMILES): CC1(C)CC(NC(=O)C(=O)Nc2ccc(Cl)cc2)CC(C)(C)N1 [CMPD-F, N1-(4-chlorophenyl)-N2-(2,2,6,6-tetramethylpiperidin-4-yl)oxalamide, reference compound]
- interaction with sensor-chip immobilized HIV-1 CA [1]: displayed no such interaction

Structure (SMILES): O=C(O)c1ccc(-c2nc(-c3ccc4oc5ccc(-c6nc(-c7ccc(C(=O)O)cc7)[nH]c6-c6ccccc6)cc5c4c3)c(-c3ccccc3)[nH]2)cc1 [CMPD-A, 4,4′-(4,4′-(dibenzo[b,d]furan-2,8-diyl)bis(5-phenyl-1H-imidazole-4,2-diyl))dibenzoic acid]
- IC50 ([2]; Human immunodeficiency virus 1, fully infectious virus, P4-R5 MAGI cell line, read-out: IC50 for replication of HIV-1IIIB): 89 ± 3.2 µM
- inhibition of HIV-1IIIB replication ([2]; P4-R5 MAGI cells): retained the ability to inhibit
- inhibition of HIV-1 92BR030 replication in PBMCs [3]: displayed no activity; also recorded: unable to inhibit; also recorded: did not affect replication
- IC50 [4]: 4.95 µM
- IC50 [5]: 8.35 µM
- IC50 [6]: 1.43 µM
- IC50 [7]: 7.66 µM
- IC50 [8]: 2.37 µM
- activity against RSV ([9]; CPE assay, up to 100 μM): active against RSV
- IC50 ([9]; human respiratory syncytial virus, RSV, Vero cells): 10.2 µM
- CC50 [10]: 35 µM
- IC50 [11]: 30 µM
- toxicity [12]: no toxicity
- LDH release versus untreated cells [13]: Neither CMPD-A nor CMPD-D promoted LDH release
- cellular toxicity against the Vero cells [14]: no cellular toxicity
- IC50 [15]: 1.25 µM
- IC50 ([16]; Human immunodeficiency virus 1, Cf2Th-CCR5, read-out: IC50 against HIV-1 (single-round infection)): 33.3 ± 0.31 µM
- IC50 [17]: 33.6 ± 0.31 µM

Structure (SMILES): COC(=O)c1ccc(-c2nc(-c3ccc4oc5ccc(-c6nc(-c7ccc(C(=O)OC)cc7)[nH]c6-c6ccccc6)cc5c4c3)c(-c3ccccc3)[nH]2)cc1 [CMPD-B, dimethyl 4,4′-(4,4′-(dibenzo[b,d]furan-2,8-diyl)bis(5-phenyl-1H-imidazole-4,2-diyl))dibenzoate]
- activity in the single-round infection assay [16]: lost all activity

Structure (SMILES): Cc1ccc(NC(=O)NCCSCc2ccc(CN(C)C)o2)cc1Cl [CAP-1, N-(3-chloro-4-methylphenyl)-N′-[2-[([5-[(dimethylamino)-methyl]-2-furyl]-methyl)-sulfanyl]ethyl]urea]
- Kd [18]: ~800 µM

Structure (SMILES): O=C(O)c1ccc(-c2nc(-c3ccccc3)c(-c3ccc4oc5ccccc5c4c3)[nH]2)cc1 [CMPD-C, 4-(5-(dibenzo[b,d]furan-2-yl)-4-phenyl-1H-imidazol-2-yl)benzoic acid]
- activity in the single-round infection assay [16]: retained the activity of the parental molecule

Structure (SMILES): Cc1ccc(C(C(=O)NC2CCCCC2)N(Cc2ccccc2Cl)C(=O)c2snc(C(=O)NC3CCCCC3)c2N)o1 (stereo not shown) [CMPD-D, 4-amino-N5-(2-chlorobenzyl)-N3-cyclohexyl-N5-(2-(cyclohexylamino)-1-(5-methylfuran-2-yl)-2-oxoethyl)isothiazole-3,5-dicarboxamide]
- LDH release versus untreated cells [13]: Neither CMPD-A nor CMPD-D promoted LDH release
- activity in the single-round infection assay [16]: not to have any effect on HIV-1 infection
- antiretroviral activity, assembly or post-integration event [19]: significant antiretroviral activity
